# According to PMC7274485, “A symbiotic bacterium of shipworms produces a compound with broad spectrum anti-apicomplexan activity” (PLoS Pathogens, 2020):
# Key:
# [1] = tested on: Plasmodium falciparum; test: P. falciparum-infected erythrocyte proliferation, SYBR green incorporation; format: cell-based; settings: infected erythrocytes, 72 hours; read-out: EC50 against P. falciparum
# Description: The maintenance of Plasmodium falciparum cultures and conducting of in vitro inhibitor response assays have been previously described.
# [2] = tested on: Gram negative bacteria; settings: cited from earlier work
# [3] = tested on: Gram positive bacteria; settings: cited from earlier work
# [4] = tested on: NLRP3 inflammasome; parameters: method as in PMID 30183250; settings: through activity as a potassium ionophore; cited from earlier work
# [5] = tested on: hypoxia-inducible factor-1 transcription; parameters: method as in PMID 17256467; settings: under hypoxic conditions; cited from earlier work
# [6] = tested on: rodent malaria; parameters: method as in PMID 994322; settings: cited from earlier work
# [7] = tested on: poultry coccidiosis; parameters: method as in earlier work; settings: cited from earlier work
smiles,measurement,setting,value
"C[C@H]1[C@@H](O)O[C@@H]2O[C@@]3(C)CC[C@H]4[C@H](C)CC[C@@H]1[C@@]24OO3 [DHA, dihydroartemesinin, reference compound]",EC50,[1],0.02 nM
C[C@@H]1C(=O)C[C@@H](O)CC/C=C/C=C\CC[C@H](C)OC(=O)C(O)[C@]2(O)O[C@@H](CC[C@H]2C)[C@H](C)C(=O)C[C@@H](O)CC/C=C/C=C\CC[C@H](C)OC(=O)C(O)[C@]2(O)O[C@H]1CC[C@H]2C (stereo partly drawn) [Tartrolon A],Activity against Gram negative bacteria,[2],not Gram negative bacteria
same,Activity against Gram positive bacteria,[3],activity against Gram positive
C[C@@H]1C(=O)C[C@@H](O)CC/C=C\C=C\CC[C@H](C)OC(=O)[C@@H]2O[B-]34O[C@@H](C(=O)O[C@@H](C)CC/C=C\C=C\CC[C@H](O)CC(=O)[C@@H](C)[C@@H]5CC[C@@H](C)[C@]2(O5)O3)[C@@]2(O[C@H]1CC[C@H]2C)O4.[Na+] [Tartrolon B],Activity against Gram negative bacteria,[2],not Gram negative bacteria
same,Activity against Gram positive bacteria,[3],activity against Gram positive
same,Activation of the NLRP3 inflammasome,[4],activate the NLRP3 inflammasome
C[C@@H]1C(=O)C[C@@H](O)CC/C=C/C=C\CC[C@H](C)OC(=O)[C@@H]2O[B-]34O[C@@H](C(=O)O[C@@H](C)CC/C=C\C=C\CC[C@H](O)CC(=O)[C@@H](C)[C@@H]5CC[C@](C)(O)[C@]2(O5)O3)[C@@]2(O[C@H]1CC[C@]2(C)O)O4 [Tartrolon C],Inhibition of hypoxia-inducible factor-1 transcription,[5],inhibit hypoxia-inducible factor-1 transcription
C[C@@H]1CC[C@@H]2O[C@]13O[B-]14O[C@H]3C(=O)O[C@H]3C[C@@H](/C=C/C[C@@H](O)C(C)(C)[C@@H]5CC[C@@H](C)[C@](O5)(O1)[C@@H](O4)C(=O)O[C@H]1C[C@@H](/C=C/C[C@@H](O)C2(C)C)O[C@@H]1C)O[C@@H]3C.[Na+] [aplasmomycin],In vivo activity against rodent malaria,[6],active in vivo
CC(C)[C@@H](N)C(=O)O[C@H](C)[C@@H]1C/C=C\CC[C@H](O)C(C)(C)[C@@H]2CC[C@@H](C)[C@@]3(O2)O[B-]24O[C@@H](C(=O)O1)[C@]1(O[C@@H](CC[C@H]1C)C(C)(C)[C@H](O)CCC[C@@H]1C[C@H](OC(=O)[C@@H]3O2)[C@@H](C)O1)O4.[H+] [boromycin],In vivo activity against poultry coccidiosis,[7],active in vivo
